The record followed here is patent US20160046616A1, “NRF2 SMALL MOLECULE INHIBITORS FOR CANCER THERAPY” (THE JOHNS HOPKINS UNIVERSITY, priority 2013, published 2016).

Data set [1] relates to H1437 NRF2-ARE-Fluc stable cell line. Kind of data set: H1437 Nrf2 assay: NRF2-ARE firefly luciferase reporter gene assay. It counts as cell-based. The following applies: Homo sapiens, NCI-H1437, H1437 NRF2-ARE-Fluc stable cell line; read-out: Potency of inhibition, H1437.
The subject of data set [2] is mRNA expression of Nrf2 and its downstream target genes, GCLm and NQO1, A549 cells. Kind of data set: Real time RT-PCR of Nrf2 and downstream target genes in A549 cells. It counts as cell-based. The settings on record: for NRF2 signaling, fold change in mRNA by real time RT-PCR / Nrf2 (and GCLm, NQO1) expression, real time PCR based validation: A549 cells; for NRF2 signaling, fold change in mRNA by real time RT-PCR: 48 h (compounds 1, 3), 72 h (compound 4). The protocol:
[…] The mRNA expression of Nrf2 and its downstream target genes, GCLm and NQO1 was measured by RT-PCR. (NC means no significant change in gene expression in comparison with vehicle group; M represents the concentration of drug used in the gene expression studies and it is twice the IC50 values generated from primary screening with A549-ARE reporter cell lines).
On the technique in general: Quantitative PCR measures a nucleic acid by following its amplification.

The test system of a further data set is A549 lung cancer cells. The experiment in a line: Clonogenic assay in A549 lung cancer cells. It counts as cell-based. The settings on record: combination with chemotherapeutic drug. The protocol:
For the clonogenic assay, exponentially growing cells were counted, diluted, and seeded in triplicate at 1,000 cells/well in a 6-well plate. Cells were incubated for 24 h in a humidified CO2 incubator at 37° C., and exposed to drugs or vehicle for 48 h. The chemotherapeutic drugs, etoposide, cisplatin, or carboplatin were added to some of the samples to see the effect of the drug in the presence and absence of the small inhibitors of Nrf2. After the treatment period, the drug containing media was replaced with complete growth media. To assess clonogenic survival following the drug treatment, A549 cells from a type of non-small cell lung cancer cell line were incubated in complete growth medium at 37° C. for 10-14 days and then stained with 50% methanol-crystal violet solution. Only colonies with more than 50 cells were counted (final concentration of DMSO in the growth media was 0.1%).
(§1) For the clonogenic assays, 1,000 cells/well were plated in a 6-well plate. The next day, the cells were treated with vehicle (DMSO), Nrf2 inhibitor, a chemotherapeutic drug, or a combination of Nrf2 and chemotherapeutic drugs for 48 hrs. The drug containing media was then replaced with regular growth media and the cells were incubated for an additional 10 days. At the end of incubation period, the colonies were stained with Crystal Violet and imaged.

Data set [3] is described as follows: In vivo pharmacokinetic plasma profile. The settings on record: CD-1 mice; for Compound retained in the blood until / Time by which most of the compound is cleared from the blood: IP 30 mg/kg, IV 3 mg/kg, plasma. On the procedure: For the in vivo pharmacokinetic studies, single intraperitoneal (IP; 30 mg/kg) and intravenous (IV; 3 mg/kg) injection was carried out using CD-1 mice. (n=3 per group/time point). Compounds in the plasma were quantified using Mass Spectrometry.

The next data set concerns A549 xenograft tumors. The experiment in a line: A549 lung cancer xenograft assay (flank). It counts as in vivo, athymic nude mice. The following applies: for A549 tumor weight at end of treatment, combination with carboplatin / A549 tumor weight at end of treatment, single agent: compared to vehicle group; for Growth of A549 xenograft tumors, combination with carboplatin / Growth of A549 xenograft tumors, single agent: nude mice, flank; for Growth of A549 xenograft tumors, single agent / Efficacy of compound alone relative to carboplatin, A549 tumors: single agent. On the procedure:
A549 cells were injected in the flanks of athymic nude mice and once tumor volume reached 50-100 mm^3, treatment was initiated. Vehicle, carboplatin (5 mg/kg daily Monday to Friday), compound 4 (30 mg/kg daily Monday to Friday) or a combination of compound 4 and carboplatin was administered for three weeks. Values represent tumor volume ±s.e.m. for all groups (A). […] Tumors were excised and weight at the end of treatment period. […] For each group, pretreatment available lung volume was defined as 100% and compared with post-treatment lung volumes. Mice in the vehicle treated group died at 3 weeks;
A549 cells were injected in the flanks of athymic nude mice and once tumor volume reached 50-100 mm^3, treatment was initiated. Vehicle, carboplatin (20 mg/kg; 2 days/week), compound#1 (20 mg/kg 4 days/week) or a combination of compound 1 and carboplatin was administered for four weeks. Values represent tumor volume ±s.e.m. for all groups. […] Tumors were excised and weight at the end of treatment period. […] H460 cells were injected in the flanks of athymic nude mice and once tumor volume reached 50-100 mm^3, treatment was initiated. Vehicle, carboplatin (10 mg/kg; 5 days/week), compound 1 (30 mg/kg 5 days/week) or a combination of compound 1 and carboplatin was administered for three weeks. Values represent tumor volume ±s.e.m.;
A549 cells were injected in the flanks of athymic nude mice and once tumor volume reached 50-100 mm^3, treatment was initiated. Vehicle, carboplatin (10 mg/kg; 5 days/week), compound 3 (60 mg/kg 4 days/week) or a combination of compound 3 and carboplatin was administered for 15 days. Tumor growth was monitored till 28 days. Values represent tumor volume ±s.e.m. for all groups. […] Values represent tumor volume ±s.e.m.;
For the A549 lung cancer xenograft assay, five million cells in 100 μL of PBS were implanted in the flank of nude mice. Two to three weeks post cell implantation, when the tumors were about 50 to 100 mm^3 in dimension, the mice were randomly divided into four groups: vehicle, chemotherapeutic drug, Nrf2 inhibitor, and chemotherapeutic drug with an Nrf2 inhibitor. The mice were treated with the drugs for 2 to 4 weeks. Tumor volume was recorded biweekly.

The test system of the next data set is osteosarcoma cells. The experiment in a line: Clonogenic assay in osteosarcoma cells. In kind it is cell-based. The following applies: for Growth of osteosarcoma cells, single agent: single agents. The protocol: as §1
Data set [4] concerns pancreatic cancer cells (Panc1). Kind of data set: Clonogenic assay in Panc1 pancreatic cancer cells. It counts as cell-based. The following applies: for Growth of Panc1 cells, combination with gemcitabine: gemcitabine (10 nM in figure legends). The protocol:
(A-B) Panc1 and MiaPaCa cells were treated gemcitabine (10 nM) singly or in combination with compound 1 for 72 h. At the end of treatment, regular growth media was added and cells were further incubated for 8-10 days and stained with crystal violet;
as §1

“Also recorded” adds a separate entry of the source.

On to `O=C(Nc1ncc(Cc2ccc(C(F)(F)F)cc2)s1)c1ccc(-c2cccc([N+](=O)[O-])c2)o1` [Compound 1], for which, in data set [1], the IC50 was less than 5 µM. In addition, the “NRF2 signaling, fold change in mRNA by real time RT-PCR” value (“NRF2 signaling, fold change in mRNA” below) in data set [2] was “inhibit NRF2 signaling”. The “Nrf2, GCLm, and NQO1 gene expression, real time PCR based validation assay” value in data set [2] (cell line not given) was “decrease in Nrf2, GCLm, and NQO1 gene expression”. Further, in the data set with A549 lung cancer cells, the “Cytotoxicity of chemotherapeutic drugs in combination with the compound, clonogenic assay” value (shortened to “Cytotoxicity of chemotherapeutic drugs”) is given as “more effective in combination with a chemotherapeutic drug”. Also, in data set [3], the “Retention time in the blood, comparison of compounds 3, 4 and 1” value was “retained in the blood for the longest time”; the “Compound retained in the blood until” value was “about 24 hr”. For the same molecule, in the data set on A549 xenograft tumors, the “A549 tumor weight at end of treatment, combination with carboplatin” value is reported as “significantly reduced tumor weight”; the “A549 tumor weight at end of treatment, single agent” value is “significantly reduced tumor weight”; the “Growth of A549 xenograft tumors, combination with carboplatin” value is “showed inhibition of A549 xenograft tumors; also recorded: sensitized A549 lung tumors to carboplatin therapy”; the “Growth of A549 xenograft tumors, single agent” value was “showed inhibition of A549 xenograft tumors; also recorded: shows anti-tumor activity as a single agent”. In addition, the “Efficacy of compound alone relative to carboplatin, A549 tumors” value with A549 xenograft tumors is “comparable to carboplatin”. In addition, in the data set with osteosarcoma cells, the “Growth of osteosarcoma cells, combination with doxorubicin” value (from here on “Growth … with doxorubicin”) is “suppressed the growth of osteosarcoma cells” and the “Growth of osteosarcoma cells, single agent” value is given as “suppressed the growth of osteosarcoma cells”. In addition, in data set [4], the “Growth of Panc1 cells, single agent” value is listed as “suppressed the growth of two different pancreatic cell lines” and the “Growth of Panc1 cells, combination with gemcitabine” value (“Growth of Panc1 cells, combination” below) was “enhance the cytotoxicity of gemcitabine; also recorded: potentiates the cytotoxicity of standard care chemotherapy drugs (gemcitabine)”.

`CC1(C)CC2CC(C)(CN2S(=O)(=O)c2ccc(C(=O)Nc3ccc(Cl)c(S(=O)(=O)N4CCOCC4)c3)cc2)C1` (stereo not shown) [compound 3]: the IC50 in data set [1] was less than 5 µM. Besides, in data set [2] (A549 and H1437 cells), the “NQO1 and GCLm expression, real time PCR” value is “Inhibition of NQO1 expression as well as some inhibition of GCLm expression”. In data set [2], the “Nrf2 (and GCLm, NQO1) expression, real time PCR based validation” value was “inhibit Nrf2 expression” and the “NRF2 signaling, fold change in mRNA” value is listed as “inhibit NRF2 signaling”. Further, the “Cytotoxicity of chemotherapeutic drugs” value in the data set with A549 lung cancer cells was “enhance the cytotoxicity of standard care chemotherapeutic drugs”. In data set [3], the “Retention time in the blood, comparison of compounds 3, 4 and 1” value was “cleared the fastest”; the “Time by which most of the compound is cleared from the blood” value was “about 8 hrs”. Moreover, the “A549 tumor growth at Day 43, 4 weeks from the end of treatment, combination with carboplatin” value in the data set on A549 xenograft tumors (compound 60 mg/kg 4 days/week + carboplatin 10 mg/kg 5 days/week for 15 days) is “significant growth retardation as compared to group treated with single agent”. Also, in the data set with A549 xenograft tumors, the “Growth of A549 xenograft tumors, combination with carboplatin” value is “inhibited the growth; also recorded: sensitized A549 lung tumors to carboplatin therapy”; the “Growth of A549 xenograft tumors, single agent” value is “inhibited the growth; also recorded: significantly attenuated tumor growth till 28 days”; the “Efficacy of compound alone relative to carboplatin, A549 tumors” value is reported as “comparable to carboplatin”. Besides, in the data set on osteosarcoma cells, the “Growth … with doxorubicin” value is “suppressed the growth of osteosarcoma cells” and the “Growth of osteosarcoma cells, single agent” value is listed as “suppressed the growth of osteosarcoma cells”. In data set [4], the “Growth of Panc1 cells, single agent” value is “suppressed the growth of two different pancreatic cell lines; also recorded: significant growth inhibitory effect as a single agent” and the “Growth of Panc1 cells, combination” value is listed as “enhance the cytotoxicity of gemcitabine”.

Regarding `Cc1ccccc1C(=O)N1CCc2cc(-c3nc(NC(=O)Cc4ccc5c(c4)OCO5)sc3C)ccc21` [compound 4], in data set [1], the IC50 was less than 5 µM. For the same molecule, the “NRF2 and its target genes, time course” value in data set [2] (5 μM) is “Time dependent reduction in NRF2 and its target genes”. Moreover, in data set [2], the “Nrf2 (and GCLm, NQO1) expression, real time PCR based validation” value is “significant reduction in Nrf2, GCLm, and NQO1 expression”; the “NRF2 signaling, fold change in mRNA” value was “inhibits NRF2 signaling”. Also, the “Cytotoxicity of chemotherapeutic drugs” value in the data set with A549 lung cancer cells is “more effective in combination with a chemotherapeutic drug; also recorded: potentiates the toxicity of standard care chemotherapy drugs”. In data set [3], the “Compound retained in the blood until” value is listed as “about 12 hr” and the “Time by which most of the compound is cleared from the blood” value is not above 24 h. For the same molecule, in the data set on A549 xenograft tumors, the “A549 tumor weight at end of treatment, combination with carboplatin” value is “significantly reduced tumor weight”; the “A549 tumor weight at end of treatment, single agent” value was “significantly reduced tumor weight”; the “Growth of A549 xenograft tumors, combination with carboplatin” value is “tumor size and tumor weight was reduced; also recorded: sensitized A549 lung tumors to carboplatin therapy”; the “Growth of A549 xenograft tumors, single agent” value is “tumor size and tumor weight was reduced; also recorded: shows anti-tumor activity as a single agent”. Further, the “Efficacy of compound alone relative to carboplatin, A549 tumors” value with A549 xenograft tumors is reported as “comparable to carboplatin”. In the data set with osteosarcoma cells, the “Growth … with doxorubicin” value is reported as “suppressed the growth of osteosarcoma cells” and the “Growth of osteosarcoma cells, single agent” value was “suppressed the growth of osteosarcoma cells”. In data set [4], the “Growth of Panc1 cells, single agent” value is recorded as “suppressed the growth of two different pancreatic cell lines; also recorded: significant growth inhibitory activity as single agent” and the “Growth of Panc1 cells, combination” value is “enhance the cytotoxicity of gemcitabine; also recorded: potentiates the cytotoxicity of standard care chemotherapy drugs (gemcitabine)”.
